These are literature values, as cited in patent US10398729B2, “Method for treating Alzheimer's disease” (priority 2012, dated 2019).

Series [1] concerns elderly adults with early memory decline.
The subject of the next series is brain functions. The note with it: prolonged intranasal administration.
The next series deals with hepatoma cells SMMC-7721. As to conditions: 20.0 μmol/L chromic chloride.
Series [2] concerns patients with mild-to-moderate AD.
Series [3] relates to primary human fibroblast cells (IMR-90). The note with it: IMR-90 cells in vitro.

Regarding chromium picolinate, in series [1], the “cognitive performance and brain function” value was “can improve cognitive performance and brain function”.

As to `C=C1/C(=C\C=C2/CCC[C@]3(C)[C@@H]([C@H](C)CCCC(C)(C)O)CC[C@@H]23)C[C@@H](O)C[C@@H]1O` [1,25D3, 1alpha,25-dihydroxyvitamin D3], the apoptosis entry in the series with macrophages is listed as “protecting against apoptosis”. Moreover, the “Abeta phagocytosis and clearance” value in the series on macrophages (studied in combination with curcuminoids) is “strongly stimulated”.

In the case of insulin, in the series with brain functions, the memory and mood entry is “improving memory and mood”; the systemic side effects result was “absence of systemic side effects”.

As to `[Cl][Cr]([Cl])[Cl]` [chromic chloride], in the series with hepatoma cells SMMC-7721, the telomere lengths entry is reported as “remarkably extended the telomere lengths”.

Consider `CCCCCCCC(=O)OCC(COC(=O)CCCCCCC)OC(=O)CCCCCCC` [AC-1202], for which the memory and cognition result in series [2] is “improves memory and cognition”.

For `CC(C)(C)NO` [N-tert-butylhydroxylamine (NtBHA), N-tert-butylhydroxylamine], the “senescence-related and H2O2-stimulated iron accumulation” value in series [3] is reported as “attenuated”.
